Measurements as given in patent US8785655B2, “Ionic liquid solvents” (Dublin City University, priority 2009, dated 2014).

How the values were obtained:
Candida tropicalis 156 = assay: In vitro antifungal activity, MIC by microdilution (NCCLS M27-A); details: CT
Description: (§1) In vitro antifungal activities of the compounds were evaluated on the collection of fungal strains deposited at the Department of Biological and Medical Sciences, Faculty of Pharmacy, Charles University, Czech Republic. All the isolates were maintained on Sabouraud dextrose agar prior to being tested.
(§2) Minimum inhibitory concentrations (MICs) were determined by the microdilution format of the NCCLS M27-A guidelines. […] RPMI 1640 (Sevapharma, Prague) medium supplemented with L-glutamine and buffered with 0.165 M morpholinepropanesulfonic acid to pH 7.0 was used as the test medium. The wells of the microdilution tray contained 100 μl of the RPMI 1640 medium with 2-fold serial dilutions of the compounds (1000 to 0.24 μmol/l for the new compounds) and 100 μl of inoculum suspension. Fungal inoculum in RPMI 1640 was prepared to give a final concentration of 5×103±0.2 cfu·ml-1. The trays were incubated at 35° C. and MICs were read visually for filamentous fungi and photometrically for yeasts as an optical density (OD) at 540 nm after 24 h and 48 h. The MICs were defined as 80% inhibition of the growth of control. MICs were determined twice and in duplicate. The deviations from the usually obtained were no higher than the nearest concentration value up and down the dilution scale.

[1] = test system: Klebsiella pneumoniae J 14368/08 ESBL-positive; assay: Screen against bacteria, MIC/IC80; format: cell-based; details: KP-E
[2] = test system: Pseudomonas aeruginosa CCM 1961; assay: Screen against bacteria, MIC/IC80; format: cell-based; details: PA
Candida krusei E28 = assay: In vitro antifungal activity, MIC by microdilution (NCCLS M27-A)
[3] = test system: Staphylococcus epidermidis H 6966/08; assay: Screen against bacteria, MIC/IC80; format: cell-based; details: SE
Escherichia coli CCM4517 = assay: Screen against bacteria, MIC/IC80; format: cell-based; details: EC
Candida glabrata 20/l = assay: In vitro antifungal activity, MIC by microdilution (NCCLS M27-A); details: CG
Candida krusei ATCC 6258 = assay: as above
[4] = test system: Candida albicans ATCC 44859; assay: as above
[5] = test system: Candida lusitaniae 2446/l; assay: as above; details: CL
[6] = test system: Trichophyton mentagrophytes 445; assay: as above; details: TM
Description: as §1, §2

Absidia corymbifera 272 = assay: as above; details: AC
Description: as §1, §2

[7] = test system: Staphylococcus aureus CCM 4516/08; assay: Screen against bacteria, MIC/IC80; format: cell-based; details: SA
[8] = test system: Klebsiella pneumoniae D 11750/08; assay: Screen against bacteria, MIC/IC80; format: cell-based; details: KP
[9] = test system: Staphylococcus aureus H 5996/08 Methiciline-resistant; assay: Screen against bacteria, MIC/IC80; format: cell-based; details: MRSA
[10] = test system: Enterococcus sp. J 14365/08; assay: Screen against bacteria, MIC/IC80; format: cell-based; details: EF
[11] = test system: Candida parapsilosis ATCC 22019; assay: In vitro antifungal activity, MIC by microdilution (NCCLS M27-A); details: CP
[12] = test system: Candida albicans ATCC 90028; assay: as above
Description: as §1, §2

[13] = test system: Aspergillus fumigatus 231; assay: as above; details: AF

Measured: MIC/IC80

CCOCCOC(=O)[C@H](OC(=O)C[n+]1ccn(C)c1)c1ccccc1 [KG835, R-3-methyl-1-[1-(ethoxyethoxycarbonyl)-1-phenylmethoxycarbonylmethyl]imidazolium bromide]
>1000 µmol/L: Candida tropicalis 156; 24 h | Candida tropicalis 156; 48 h | [1]; 24 h | [1]; 48 h | [2]; 24 h | [2]; 48 h | Candida krusei E28; CK2, 24 h | Candida krusei E28; CK2, 48 h | [3]; 24 h | [3]; 48 h | Escherichia coli CCM4517; 24 h | Escherichia coli CCM4517; 48 h | Candida glabrata 20/l; 24 h | Candida glabrata 20/l; 48 h | Candida krusei ATCC 6258; CK1, 24 h | Candida krusei ATCC 6258; CK1, 48 h | [4]; CA1, 24 h | [4]; CA1, 48 h | [5]; 24 h | [5]; 48 h | [6]; 72 h | [6]; 120 h | Absidia corymbifera 272; 24 h | Absidia corymbifera 272; 48 h | [7]; 24 h | [7]; 48 h | [8]; 24 h | [8]; 48 h | [9]; 24 h | [9]; 48 h | [10]; 24 h | [10]; 48 h | [11]; 24 h | [11]; 48 h | [12]; CA2, 24 h | [12]; CA2, 48 h | [13]; 24 h | [13]; 48 h

R-3-methyl-1-[1-(ethoxyethoxycarbonyl)-1-methylmethoxycarbonylmethyl]imidazolium octyl sulphate [KG173]
>1000 µmol/L: Candida tropicalis 156; 24 h | Candida tropicalis 156; 48 h | [1]; 24 h | [1]; 48 h | [2]; 24 h | [2]; 48 h | Candida krusei E28; CK2, 24 h | Candida krusei E28; CK2, 48 h | [3]; 24 h | [3]; 48 h | Escherichia coli CCM4517; 24 h | Escherichia coli CCM4517; 48 h | Candida glabrata 20/l; 24 h | Candida glabrata 20/l; 48 h | Candida krusei ATCC 6258; CK1, 24 h | Candida krusei ATCC 6258; CK1, 48 h | [4]; CA1, 24 h | [4]; CA1, 48 h | [5]; 24 h | [5]; 48 h | [6]; 72 h | [6]; 120 h | Absidia corymbifera 272; 24 h | Absidia corymbifera 272; 48 h | [7]; 24 h | [7]; 48 h | [8]; 24 h | [8]; 48 h | [9]; 24 h | [9]; 48 h | [10]; 24 h | [10]; 48 h | [11]; 24 h | [11]; 48 h | [12]; CA2, 24 h | [12]; CA2, 48 h | [13]; 24 h | [13]; 48 h
